“Also recorded” adds a separate entry of the source. Where two headings read alike, the source gives them in different places.
Legend:
[1] = tested on: NTox released by Aβ1-42-stimulated microglia (neuron killing); experiment: cells; assay type: cell-based, rat
Text: . Briefly, hippocampal cells obtained from embryonic stage 18 rat fetuses were dispersed mechanically in the presence of 0.125% trypsin and plated onto poly-L-lysine coated glass coverslips in 24 well plates at 250,000 cells per well (resulting in adhering cell densities of about 1250 cells per mm^2) in chemically-defined N2 culture media containing 5% fetal bovine serum. Gradual reduction of serum began on day 10 in vitro with daily 1:1 volume replacements with chemically-defined media, until a final concentration of 0.6% serum was achieved. […]; see FIG. 18). In order to eliminate microglia, cultures were exposed to saporin (sap; a ribosome-inactivating protein; Davis and Wiley, 1989) coupled to acetylated LDL (ac-LDL) at a concentration of 10 μg/ml for 12 hours. […] Cultures depleted of microglia were then exposed to test substances in the presence or absence of exogenous microglia (100,000 cells per culture). […]. Controls included cultures without saporin-treatment, cultures without test substances, and cultures with test substances but lacking microglia.
(§1) On day 14 of culture, immediately following saporin treatment, test substances were added to the hippocampal cultures. Synthetic peptide were supplied as 1 mM stock solutions in 0.1 M phosphate buffered saline, pH 7.2, stored for at least 1 week at 4° C. before use. After 72 hours incubation, the cultures were fixed in 4% paraformaldehyde at room temperature for 18 hours and immuno-stained by overnight incubation with a mixture of anti-neurofilament antibodies (NF; SMI-311, 1:600; Stemberger Monoclonals, Inc.) plus anti-MAP-2 (Boehringer Mannheim, 184959; 1:600) at 4° C. in the presence of 2% horse serum and 0.3% triton X-100 to delineate both neuronal cell bodies and neurites. Astroglia were visualized using sheep anti-glial fibrillary acidic protein (GFAP, Sigma) as described by Giulian et al., 1989. Finally, to label all cell nuclei, the coverslips were exposed to 0.01% bisbenzimide (Hoechst 33258; Sigma) in PBS, pH 6.9, and rinsed in distilled water and mounted in glycerin. Immuno-labeled cells per field and nuclei per field were scored at 200X magnification using fluorescence microscopy. Data were expressed as % mean survival expressed in terms of parallel untreated control cultures after scoring at least 20 randomly selected fields for each of 3 coverslips.
The procedures described above and by Giulian et al, 1996, provided for the identification of tyramine compounds as therapeutic agents for neurodegenerative diseases or disorders including, for example, Alzheimer's disease. Cells from the brain of fetal rats were grown in tissue cultures. Microglial populations within the cultures were controlled following the method described in Example 5 above. Known amounts of Aβ peptides coupled to microspheres were added to the culture. The Aβ spheres stimulated the microglia to release NTox, which in turn destroyed the neurons. The neurons in the cultures were monitored for survival by immuno-staining.
Generally, drug assays involve the addition of known concentrations of a test agent over a range of concentrations. After 72 hours, the experiment is stopped and the neurons are identified by immuno-staining. The data is expressed as % neuronal survival […]. Dose response curves are then used to estimate Effective Dose50 % (ED50) of neuroprotective agents. […].
In this experiment, about 65% of the neurons were destroyed by the Aβ-stimulated microglia. […] Other tyramine compounds, including tyrosine esters, were neuroprotective (FIG. 30).
Following the methods described herein, numerous compounds were examined to determine their neuroprotective activity. […]

NTox = experiment: protection of neurons against isolated NTox applied directly; assay type: cell-based; conditions: isolated NTox; FIGS. 13, 32
Text: FIG. 32 is a graph showing the specificity of tyramine compounds to NTox. […].
Initial studies to characterize the neuroprotective effect of tyramine compounds employed microglia-neuron co-culture assays in the presence of Aβ or isolated senile plaques. Inhibition of neuron killing in […]--inhibition of microglial activation by Aβ or plaques; inhibition of NTox production and release by microglia; or inhibition of action of NTox upon neurons. […] Effective doses in the low nmolar range show the tyramine compounds to be very potent agents compared with low μmolar range of other neuroprotective drugs under development for neurological disorders.

quinolinic acid (QUIN) = experiment: protection of neurons against quinolinic acid; assay type: cell-based; conditions: QUIN (100 μM in FIG. 13)
Text: FIG. 32 is a graph showing the specificity of tyramine compounds to NTox. […]

rat microglia [2] = experiment: binding of Aβ-coupled microspheres to microglia; conditions: 4 hours at 37° C. (72 h in FIG. 23)
microglia = experiment: inhibition of SpheresAβ1-42 binding to microglia; set-up: species or system rat; conditions: for inhibition of SpheresAβ1-42 binding by peptides: 10 μmoles/l, 4 hours, 37° C.; for SpheresAβ1-42 binding after enzymatic treatment of microglia: trypsin 5000 units/ml, heparinase 0.01 units/ml, chondroitinase ABC 0.02 units/ml
Method: (§2) Spheresmal-BSA (which bind to scavenger receptors) or SpheresAβ1-42 were incubated with microglia for 4 hours following pre-treatment of cells with trypsin (5000 units/ml at 37° C. for 60 min followed by inactivation with soybean trypsin inhibitor), with heparinase (heparin lyase EC 4.2.2.7; two consecutive treatments each of 0.01 units/ml for 60 min), or with chondroitinase ABC (chondroitin ABC lyase EC 4.3.3.4; two consecutive treatments each of 0.02 units/ml for 60 min). […] Microglia mixed with hippocampal neurons were treated with combinations of β-D-xyloside (1 mm), heparinase (0.02 units/ml), or chondroitinase (0.04 units/ml) and then exposed to plaques.
Each well then received 250,000 SpheresAβ1-42 or Spheresmal-BSA in the presence or absence of Aβ peptides, GAGs, or scavenger receptor ligands. Binding assays were carried out at 37° C. for 4 hours after which coverslips were dipped 10 times in phosphate buffer and fixed with 4% buffered paraformaldehyde. Microsphere adherence to cells was scored at 200 magnification with phase/fluorescence microscopy. Data, expressed as % inhibition of sphere binding, was calculated from total number of spheres per field noted for control cultures receiving spheres only. Values are based upon at least 3 coverslips from 2 independent experiments. […] Washed spheres were resuspended in 0.2 M borate buffer (pH 8.5) in the presence of 300 μg Aβ or 400 μg BSA in 6% DMSO. After overnight mixing at room temperature, the spheres were washed extensively and blocked by 1 M glycine (pH 8.0) for 30 minutes.

[3] = tested on: Aβ1-42-stimulated microglia; assay type: cell-based, rat; conditions: for blocking of Aβ1-42 induced microglial neurotoxicity by peptides: 10 μmoles/liter peptide, 1 μmole/liter Aβ1-42; for IC50: read-out: ED50 (blocking of Aβ1-42 induced neurotoxicity), FIG. 16B
Text: (§3) Briefly, hippocampal cells obtained from embryonic stage 18 rat fetuses were dispersed mechanically in the presence of 0.125% trypsin and plated onto poly-L-lysine coated glass coverslips in 24 well plates at 250,000 cells per well (resulting in adhering cell densities of about 1250 cells per mm^2) in chemically-defined N2 culture media containing 5% fetal bovine serum. Gradual reduction of serum began on day 10 in vitro with daily 1:1 volume replacements with chemically-defined media, until a final concentration of 0.6% serum was achieved. […] In order to eliminate microglia, cultures were exposed to saporin (sap; a ribosome-inactivating protein; Davis and Wiley, 1989) coupled to acetylated LDL (ac-LDL) at a concentration of 10 μg/ml for 12 hours. […] Cultures depleted of microglia were then exposed to test substances in the presence or absence of exogenous microglia (100,000 cells per culture). […] Controls included cultures without saporin-treatment, cultures without test substances, and cultures with test substances but lacking microglia.
as §1

[4] = tested on: reactive microglia in rat neocortex; experiment: brain inflammatory response after infusion into neocortex of adult rat; assay type: in vivo; conditions: 0.5 nmoles Aβ1-42, co-infusion of 1.0 nmole peptide; 5 days
human microglia [5] = experiment: induction of neuron-killing human microglia; assay type: cell-based; conditions: 1 μmole/liter synthetic peptides
hippocampal neurons = assay type: cell-based, rat; conditions: absence of microglia
Text: as §3, §1

rat microglia [6] = assay type: binding; conditions: 6 hours, 37° C.
Method: Synthetic Aβ peptides were linked to Sepharose beads (Pharmacia) in coupling buffer (0.1 M NaHCO3, 0.5 M NaCl, pH 8.3) containing 20% DMSO. This solution was combined with an appropriate volume of CNBr-activated Sepharose 4B (10 mg protein per ml of bead; Pharmacia protocol) and mixed overnight on a platform mixer at room temperature. Remaining active groups on the beads were blocked by 1.0 M glycine and excess uncoupled peptides removed from this bead-peptide complex by washing with three cycles of alternating pH (0.1 M acetate buffer, pH 4.0, followed by 0.1 M Tris-HCL buffer, pH 8.0, each buffer containing 0.5 M NaCl). Coupled beads (10^4 per ml) were placed in 35 mm culture dishes covered with 250,000 adhering microglia at 37° C. in 1.5 ml N2 medium in accordance with the procedure of Giulian et al., 1995a. The numbers of microglia which detached from the plate and bound to coupled beads were determined at the end of a 6 hour incubation period by inverted phase microscopy with 100 beads scored from each of three sister cultures. Glycine and bovine serum albumin (BSA) coupled beads were used as controls.

[7] = assay type: physicochemical; conditions: chemically defined culture media, 37° C.; Table 2
Text: Solubility of peptides is described for chemicallydefined culture media a […]

[8] = tested on: rat microglia / hippocampal neurons; conditions: for induction of neurotoxic microglia / neuron killing: rat microglia, mostly 1 μmole/l
human microglia [9] = experiment: nitrite/nitrate production, human microglia; assay type: cell-based
Method: Nitrites and nitrates, stable byproducts of nitric oxide synthetase (NOS) served as markers for nitric oxide (NO) synthesis (Ignarro, 1990). […]; for 24 to 72 hours incubated in the presence of neuritic/core plaques or Aβ peptides) were measured by the Griess method set forth by Beckman et al., 1990 against a standard curve ranging from 0.1 to 50.0 μM nitrate.

[10] = tested on: plaque-stimulated microglia; experiment: blocking of plaque-induced microglial neurotoxicity; assay type: cell-based, rat; conditions: FIG. 16C
scavenger receptor = experiment: inhibition of Spheresmal-BSA binding to microglia; set-up: species or system rat
Method: as §2
Each well then received 250,000 SpheresAβ1-42 or Spheresmal-BSA in the presence or absence of Aβ peptides, GAGs, or scavenger receptor ligands. Binding assays were carried out at 37° C. for 4 hours after which coverslips were dipped 10 times in phosphate buffer and fixed with 4% buffered paraformaldehyde. Microsphere adherence to cells was scored at 200 magnification with phase/fluorescence microscopy. Data, expressed as % inhibition of sphere binding, was calculated from total number of spheres per field noted for control cultures receiving spheres only. Values are based upon at least 3 coverslips from 2 independent experiments. […]

Molecule: NCCc1ccc(O)cc1 [tyramine]
- protective effect ([1]; 10 μM, 72 hours, FIG. 30): completely prevented neuron death
- neuroprotective activity (structure/function) ([1]; Example 14): enhance neuroprotective effects
- EC50 ([1]; Rattus norvegicus, Aβ-stimulated microglia, 72 h, FIG. 31, read-out: ED50 (neuroprotection)): ~0.2 µM
- inhibition of killing action of NTox applied to neurons (NTox): prevented neuronal injury
- protection against quinolinic acid (quinolinic acid (QUIN)): did not occur with quinolinic acid

Molecule: Aβ1-5: Aβ peptide residues 1-5 (DAEFR; Amyloid-beta protein 42; UniProt P05067 672-676, looked up, fragment)
- binding of peptide-coupled microspheres to microglia (rat microglia [2]): did not
- inhibition of SpheresAβ1-42 binding by peptides (microglia): did not
- blocking of Aβ1-42 induced microglial neurotoxicity by peptides [3]: did not
- local brain inflammatory response [4]: did not alter inflammation

Molecule: Aβ1-28: Aβ peptide residues 1-28
- induction of neurotoxic human microglia (human microglia [5]): inactive
- inhibition of SpheresAβ1-42 binding by peptides (microglia): effectively prevented
- blocking of Aβ1-42 induced microglial neurotoxicity by peptides [3]: blocked neurotoxin production
- IC50 [3]: 0.25 µM
- direct neurotoxicity without microglia (hippocampal neurons): did not produce neurotoxicity
- microglial adherence to coupled Sepharose beads (rat microglia [6]): promoted cell binding; also recorded: promoted bead binding
- Solubility [7]: soluble
- induction of neurotoxic microglia / neuron killing ([8]; listed as 1-28): inactive

Molecule: Aβ1-40: synthetic human β-amyloid peptide 1-40
- induction of neurotoxic human microglia (human microglia [5]): very potent inducers of neurotoxic human microglia; also recorded: stimulated release of neurotoxin from human microglia
- binding of peptide-coupled microspheres to microglia (rat microglia [2]): marked glial binding
- release of nitrate or nitrite, human microglia (human microglia [9]): did not bring about release of nitrate or nitrites
- Solubility [7]: moderately soluble
- neuron killing, microglia separated from neurons (no contact) [8]: stimulated microglia to destroy neurons
- ED50 (neuron killing via microglia) ([8]; 500 microglia per mm^2): ~0.08 µM
- induction of neurotoxic microglia / neuron killing ([8]; listed as A1-40): neuron killing could be induced
- killing of neurons ([8]; rat, hippocampal neurons, 72 h, 1 µM): 70-80%

Molecule: Aβ13-16: residues His13, His14, Gln15, and Lys16 (the HHQK domain within Aβ) (Amyloid-beta protein 42; UniProt P05067 684-687, looked up, fragment)
- blocking of Aβ1-42 induced microglial neurotoxicity by peptides [3]: blocked neurotoxin production
- blocking of Aβ1-42 induced microglial neurotoxicity by peptides ([3]; listed as HHQK): one of the most potent plaque suppressor peptides identified
- IC50 [3]: ~0.03 µM
- blocking of plaque-induced microglial toxicity by peptides [10]: blocked plaque-induced toxicity in vitro
- local brain inflammatory response [4]: blocks the interaction of Aβ1-42 with microglia in vivo and reduces the local brain inflammatory response; also recorded: markedly reduced

Molecule: dextran sulfate
- inhibition of SpheresAβ1-42 binding by GAGs and scavenger receptor ligands (microglia; heparin sulfate 50 μg/ml, dextran sulfate 500 μg/ml, ac-LDL 200 μg/ml): only heparin sulfate blocked; also recorded: not similar compounds
- inhibition of Spheresmal-BSA binding by ligands (scavenger receptor; dextran sulfate 500 μg/ml, ac-LDL 200 μg/ml, Aβ1-16 10 μmole/l): blocked

Molecule: trypsin
- SpheresAβ1-42 binding after enzymatic treatment of microglia (microglia): reduced by trypsin
- SpheresAβ1-42 binding after enzymatic treatment of microglia (microglia; listed as trypsinization): markedly reduced
- Spheresmal-BSA binding after enzymatic treatment of microglia (scavenger receptor; trypsin 5000 units/ml, chondroitinase ABC 0.02 units/ml): reduced by trypsin

Source: patent US6043283A, “Tyramine compounds and their neuronal effects” (priority 1997, dated 2000)
